Results on three compounds are retold here after paper PMC4011867 (PLoS ONE, 2014).

What all share (set-up): species or system Acyrthosiphon pisum
Assay [1] deals with T1, A. pisum native nAChRs, [3H]-imidacloprid binding sites (alpha-Bgt-insensitive).
T1 construct: gene Apisumα1
The assay can be described thus: [3H]-IMI competition binding, filtration. The note with it: 25 nM [3H]-IMI, 10 mM Tris-HCl pH 7.4, room temperature, 4 h, low-affinity site; for Ki: Cheng-Prusoff, read-out: [^3H]-IMI / % of high affinity / Ki; for IC50: read-out: [^3H]-IMI / Bmax (fmol/mg) / IC50. The source says: [3H]-IMI competition binding, filtration on A. pisum native nAChRs, [3H]-imidacloprid binding sites (alpha-Bgt-insensitive)

Assay [2] has as its target T2, A. pisum native nAChRs, [125I]-alpha-bungarotoxin binding sites (alpha-Bgt-sensitive).
T2 construct: gene Apisumα1
Conditions: PBS pH 7.2, 0.1% BSA, room temperature, 4 h, low-affinity site, Cheng-Prusoff, table header prints nM, text and IC50 support µM.

Assay [3] has as its target T1, A. pisum native nAChRs, [3H]-imidacloprid binding sites (alpha-Bgt-insensitive). Briefly: [3H]-IMI saturation binding, filtration. The note with it: 10 mM Tris-HCl pH 7.4, room temperature, 4 h; high-affinity site of two-site fit; labelled compound; read-out: [^3H]-IMI / Kd (nM) / assay level. An excerpt:
[3H]-IMI saturation binding, filtration on A. pisum native nAChRs, [3H]-imidacloprid binding sites (alpha-Bgt-insensitive)

The mark [4] stands for this setting: apparent Ki, possibly not strictly competitive.
Setting [5] is: possibly not strictly competitive.

Where two headings read alike, the source gives them in different places.

As for `CN/C(=N\[N+](=O)[O-])NCc1cnc(Cl)s1` [clothianidin], the figures for the Ki in assay [1] (setting [4]) and in assay [2] (0.08 nM [125I]-alpha-Bgt) were 127 ± 42.5 nM and 180 ± 50 nM, respectively. Moreover, in assay [1] (setting [5]), the IC50 came out at 203 ± 68 nM.
In the case of `O=[N+]([O-])N=C1NCCN1Cc1ccc(Cl)nc1` [imidacloprid], in assay [3], the Kd was determined as 0.16 ± 0.04 nM. For the same compound, in assay [1], the Ki was 38.1 ± 6.88 nM and the IC50 was found to be 61 ± 11 nM. Also, the Ki in assay [2] (0.6 nM [125I]-alpha-Bgt) amounted to 14600 ± 1130 nM.
As for `CN1COCN(Cc2cnc(Cl)s2)C1=N[N+](=O)[O-]` [thiamethoxam], the Ki is 1050 ± 63.1 nM in assay [1] (setting [4]) and 1530 ± 650 nM in assay [2] (0.08 nM [125I]-alpha-Bgt). Further, the IC50 in assay [1] (setting [5]) was determined as 1680 ± 101 nM.
